Columns and labels:
[1] = tested on: choroid plexus epithelial cells; assay: Cell death quantification with Cell Death Detection ELISAPLUS kit; format: cell-based, rat; details: primary choroid plexus epithelial cells, Aβ40 5 mg/ml, 24 h, ELISA PLUS kit
Experimental: (§1) Primary cultures from choroid plexus epithelial cells from P3-P5 Wistar rats were prepared as described previously. Cells were grown to confluence for 5-7 days and serum starved for 2 hours. Cultures were maintained at 37°C in a humidified atmosphere containing 5% CO2, and cultivated for 7 days prior to experimentation. Human analogue peptides corresponding to Aβ1-40 and scrambled Aβ1-40 (AnaSpec, Inc.) were added. 24 hours after stimulation, cells were either fixed for immunocytochemical analysis or homogenized for immunoblot determination. For ICD p75NTR detection primary cultures cells proteasome inhibitor epoxomycin (1 μM) (Sigma) was applied 1.5 hours prior to Aβ treatment.
For cell death quantification, after incubation for 24 h with Aβ40 (5 mg/ml), choroid plexus epithelial cells in vitro were measured with Cell Death Detection ELISAPLUS kit (Roche Diagnostics) as described previously.

p75NTR = assay: Proteolytic processing of p75NTR (Western blot, immunofluorescence, cell fractionation); format: cell-based, rat
Experimental: as §1, with “24 hours after stimulation, cells were either fixed for immunocytochemical analysis or homogenized for immunoblot determination.” left out
For Western blot analysis cultures cells were washed once with ice-cold PBS and lysed in PIK buffer (150 mM NaCl, 20 mM TrisHCl pH 7.4, 1% NP40 and protease inhibitors: 1 μg/mL aprotinin, 1 μg/mL leupeptin and 1 μg/mL phenylmethylsulfonyl fluoride, PMSF). For cell fractionation cells were lysed with C buffer (10 mM HEPES, 60 mM KCl, 1 mM EDTA, 0.075% Triton X100, 1 mM DTT with protease inhibitors. The pellet nuclei was obtained by centrifugation 325 g, 4 minutes and resuspended in NB buffer (20 mM TrisHCl pH 8, 420 mM NaCl, 15 mM MgCl2, 0.2 mM EDTA, 25% Glicerol and protease inhibitors). Thereafter, the nuclei supernatant were obtained after centrifugation 9000 g, 10 minutes. After running the samples in acrylamide gels, proteins were transferred (immobilon, Bio-Rad) and membranes were incubated with the corresponding primary at 4°C overnight. Afterwards, membranes were washed and incubated with secondary antibodies. Membranes were washed several times with Tween-TBS and developed with ECL plus (Amersham). Western blot membranes were re-blotted with unrelated proteins (α-actin) as an internal standard and normalized for protein load. Densitometric analysis was performed using ImageJ software (NIH Image). A representative blot is shown from a total of at lest three independent experiments.
Immunocytochemistry was performed with primary cultures from choroid plexus plated on 20 mm coverslips and fixed. Rat and human choroid plexus were also fixed with 4% paraformaldehyde and processed for histochemical analysis. […]

Substance: Aβ1-40: Human analogue peptides corresponding to Aβ1-40 (AnaSpec, Inc.)
- increase of cell death upon control cells [1]: 29%
- release of p75NTR-ICD fragment (19 KDa) (p75NTR; Aβ1-40 2.5 μg/mL for 15, 30 and 60 minutes, proteasome inhibitor pre-treatment, Western blot with antibody 9992): induced a release of ICD fragment at 15 and 30 minutes
- nuclear accumulation of p75NTR-ICD, immunofluorescence (p75NTR; Aβ1-40 2.5 μg/mL, 60 minutes, proteasome inhibitor 1.5 hours before, confocal microscopy): considerable accumulation of p75NTR-ICD occurred in the majority of nuclei
- p75NTR-ICD 19 KDa band in nuclear extracts (p75NTR; Aβ1-40 for 15, 30 and 60 minutes, nuclear and cytoplasmic extracts, Western blot with antibody 9992): enriched in nuclear extracts

Reference: publication PMC3103472, “The p75 neurotrophin receptor localization in blood-CSF barrier: expression in choroid plexus epithelium” (BMC Neuroscience, 2011)
